Measurements as given in US10160755B2 (Plexxikon Inc., priority 2015, dated 2018).
Positions count from the first letter of the chain named.

How the values were obtained:
[1] = target: T1, BA/F3-FLT3-ITD + D835Y cells (Homo sapiens, UniProt P36888, D835Y, cells depend on it, form not given); assay: BA/F3-FLT3-ITD + D835Y cell proliferation assay (CellTiter-Glo); format: cell-based, murine; settings: BaF3 cells, read-out: BaF3_FLT3_ITD/D835Y IC50
T1 sequence (P36888 1-993 D835Y): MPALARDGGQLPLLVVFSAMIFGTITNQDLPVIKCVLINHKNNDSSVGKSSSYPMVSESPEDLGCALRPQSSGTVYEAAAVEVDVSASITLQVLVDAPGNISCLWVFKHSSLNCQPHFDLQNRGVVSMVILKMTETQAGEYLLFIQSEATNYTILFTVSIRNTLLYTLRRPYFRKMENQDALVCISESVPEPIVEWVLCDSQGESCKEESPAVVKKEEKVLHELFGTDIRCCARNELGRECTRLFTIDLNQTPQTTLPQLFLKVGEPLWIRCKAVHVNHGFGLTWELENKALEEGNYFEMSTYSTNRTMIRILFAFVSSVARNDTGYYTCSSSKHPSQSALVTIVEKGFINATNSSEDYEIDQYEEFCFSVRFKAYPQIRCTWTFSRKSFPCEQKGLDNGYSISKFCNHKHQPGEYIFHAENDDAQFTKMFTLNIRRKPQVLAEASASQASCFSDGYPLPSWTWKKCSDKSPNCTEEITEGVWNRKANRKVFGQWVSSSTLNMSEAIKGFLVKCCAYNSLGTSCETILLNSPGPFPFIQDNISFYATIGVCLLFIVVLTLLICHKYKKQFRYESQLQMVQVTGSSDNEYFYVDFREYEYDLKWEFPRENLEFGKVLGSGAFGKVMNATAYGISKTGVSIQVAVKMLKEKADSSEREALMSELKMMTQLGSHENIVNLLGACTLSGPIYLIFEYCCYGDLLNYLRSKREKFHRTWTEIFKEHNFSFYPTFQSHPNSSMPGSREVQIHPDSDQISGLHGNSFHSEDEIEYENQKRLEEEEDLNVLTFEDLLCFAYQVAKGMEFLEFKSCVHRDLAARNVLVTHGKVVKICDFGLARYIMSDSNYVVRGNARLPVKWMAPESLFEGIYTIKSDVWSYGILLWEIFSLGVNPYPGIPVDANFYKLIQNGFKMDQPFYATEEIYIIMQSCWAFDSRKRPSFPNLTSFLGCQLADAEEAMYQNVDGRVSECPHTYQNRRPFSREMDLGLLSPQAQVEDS
Source text: The FLT3 inhibitors may also be assessed using leukemia cell lines that express endogenous FLT3-ITD or cells that are engineered to express wild-type or mutant FLT3. The cells expressing endogenous FLT3 are dependent upon FLT3 catalytic activity for growth. For the engineered cells, murine BA/F3 cells were transfected with full-length FLT3 (either wild-type, or containing the ITD, D835Y, or F691L mutations, as noted). The parental BA/F3 cells are dependent upon Interleukin-3 (IL-3) for survival, and introduction of the FLT3 constructs renders these cells dependent upon FLT3 kinase activity when cultured in the absence of IL-3. Engineered BA/F3 cell growth assays can be performed in either the absence or presence of IL-3, to assess the compound inhibition of FLT3 or to detect the presence of off-target activity, respectively. Inhibitors of FLT3 kinase activity reduce or eliminate the FLT3 oncogenic signaling, resulting in reduced cell proliferation. This inhibition is measured as a function of compound concentration to assess IC50 values.
Cells were seeded at 1×10^4 cells per well of a 96 well cell culture plate in 50 μl of cell culture medium. Compounds were dissolved in DMSO, typically at a concentration of 5 mM and were serially diluted 1:3 for a total of eight points and added to the cells to final concentrations of 10, 3.3, 1.1, 0.37, 0.12, 0.041, 0.014 and 0.0046 μM in 100 μl cell culture medium (final concentration 0.2% DMSO). […] The cells were incubated at 37° C., 5% CO2 for three days. CellTiter-Glo Buffer (Promega Cell Viability Assay catalog #G7573) and substrate were equilibrated to room temperature, and enzyme/substrate Recombinant Firefly Luciferase/Beetle Luciferin was reconstituted. […] The plates were read on a Tecan M1000 using Luminescence protocol modified to read 0.1 s per well. The luminescence reading assesses the ATP content, which correlates directly with cell number such that the reading as a function of compound concentration was used to determine the IC50 value.

FLT3-ITD = target: T2, FLT3-ITD (Homo sapiens, UniProt P36888); assay: FLT3-ITD biochemical kinase assay (AlphaScreen)
T2 construct: FLT3-ITD; Invitrogen #PV6190
T2 sequence (P36888 1-993): T1 sequence (P36888 1-993 D835Y) with Y835D
In short: (§1)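 First, recombinant FLT3 variant phosphorylates a biotinylated poly(Glu4-Tyr) peptide (30 nM) with ATP at 10 μM (D835Y) or 100 μM (ITD). Streptavidin donor beads are then added for 20 min at room temperature, followed by anti-phosphotyrosine PY20 acceptor beads for 60 min. Signal at 580 nm gives IC50.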

c-Kit = c-Kit (Homo sapiens, UniProt P10721); assay: c-Kit biochemical assay (per US 2007/0032519)
Sequence of c-Kit (P10721 26-976): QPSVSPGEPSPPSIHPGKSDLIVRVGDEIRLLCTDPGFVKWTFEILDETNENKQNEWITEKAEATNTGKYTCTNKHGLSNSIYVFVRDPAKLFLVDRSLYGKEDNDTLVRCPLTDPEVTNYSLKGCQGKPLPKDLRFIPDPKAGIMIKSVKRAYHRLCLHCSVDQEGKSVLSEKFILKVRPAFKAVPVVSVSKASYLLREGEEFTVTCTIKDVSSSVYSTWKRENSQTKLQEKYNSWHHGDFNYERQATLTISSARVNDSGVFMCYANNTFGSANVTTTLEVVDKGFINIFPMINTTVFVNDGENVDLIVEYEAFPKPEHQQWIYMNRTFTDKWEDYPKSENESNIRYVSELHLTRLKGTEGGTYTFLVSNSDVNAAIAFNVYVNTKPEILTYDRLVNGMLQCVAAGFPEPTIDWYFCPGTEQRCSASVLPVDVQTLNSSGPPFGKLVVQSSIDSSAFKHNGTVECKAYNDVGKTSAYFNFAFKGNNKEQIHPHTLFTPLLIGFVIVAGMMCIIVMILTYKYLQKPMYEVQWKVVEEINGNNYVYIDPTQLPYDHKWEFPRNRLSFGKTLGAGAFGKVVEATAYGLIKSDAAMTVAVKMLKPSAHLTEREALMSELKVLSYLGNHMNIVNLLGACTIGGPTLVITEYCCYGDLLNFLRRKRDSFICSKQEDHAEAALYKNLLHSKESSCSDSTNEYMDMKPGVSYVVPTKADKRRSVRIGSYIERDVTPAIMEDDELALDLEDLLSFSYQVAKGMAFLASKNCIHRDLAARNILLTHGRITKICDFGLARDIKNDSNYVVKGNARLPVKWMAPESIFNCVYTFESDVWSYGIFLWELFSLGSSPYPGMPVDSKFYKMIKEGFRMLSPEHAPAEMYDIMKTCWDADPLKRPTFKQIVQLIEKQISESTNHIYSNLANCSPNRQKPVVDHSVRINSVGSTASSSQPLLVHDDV
In short: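 Biochemical kinase inhibition run per US 2007/0032519; values reported as binned IC50 ranges (0.0001–1 μM, 1–10 μM, 10–200 μM).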

FLT3-D835Y = target: T3, FLT3-D835Y (Homo sapiens, UniProt P36888, D835Y); assay: FLT3-D835Y biochemical kinase assay (AlphaScreen)
T3 construct: purchased Invitrogen PV3967
T3 sequence (P36888 27-993 D835Y): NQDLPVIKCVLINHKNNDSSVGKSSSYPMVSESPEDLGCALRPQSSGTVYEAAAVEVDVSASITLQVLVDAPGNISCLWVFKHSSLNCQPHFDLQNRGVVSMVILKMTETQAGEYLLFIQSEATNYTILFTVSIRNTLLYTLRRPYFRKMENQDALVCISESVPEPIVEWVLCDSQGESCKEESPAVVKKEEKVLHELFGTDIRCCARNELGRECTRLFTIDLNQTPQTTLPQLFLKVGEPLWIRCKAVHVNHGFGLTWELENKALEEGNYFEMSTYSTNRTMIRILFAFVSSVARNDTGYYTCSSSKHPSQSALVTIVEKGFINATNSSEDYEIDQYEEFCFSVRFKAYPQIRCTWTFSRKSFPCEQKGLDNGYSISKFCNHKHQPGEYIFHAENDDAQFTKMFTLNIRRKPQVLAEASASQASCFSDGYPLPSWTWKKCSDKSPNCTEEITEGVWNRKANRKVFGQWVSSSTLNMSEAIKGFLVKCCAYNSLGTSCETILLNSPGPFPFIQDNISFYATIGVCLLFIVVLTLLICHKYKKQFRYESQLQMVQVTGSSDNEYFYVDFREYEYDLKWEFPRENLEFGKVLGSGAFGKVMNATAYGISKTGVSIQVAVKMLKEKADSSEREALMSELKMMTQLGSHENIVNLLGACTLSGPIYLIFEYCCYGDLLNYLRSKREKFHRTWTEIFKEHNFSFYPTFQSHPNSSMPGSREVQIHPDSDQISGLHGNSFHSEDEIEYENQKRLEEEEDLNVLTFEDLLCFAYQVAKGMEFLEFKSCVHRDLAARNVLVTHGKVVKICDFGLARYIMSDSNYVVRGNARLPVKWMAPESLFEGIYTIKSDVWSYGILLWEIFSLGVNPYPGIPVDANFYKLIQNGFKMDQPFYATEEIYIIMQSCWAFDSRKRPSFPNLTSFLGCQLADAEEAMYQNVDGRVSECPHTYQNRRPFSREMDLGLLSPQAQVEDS
In short: as §1

| SMILES | GI50 [1] | IC50 (FLT3-ITD) | IC50 (c-Kit) | IC50 (FLT3-D835Y) |
| --- | --- | --- | --- | --- |
| COc1cnc2[nH]cc(-c3ccc4ncsc4c3)c2c1 [Compound 3] | 237 nM | – | – | – |
| COc1cnc2[nH]cc(-c3ccc4[nH]ccc4c3)c2c1 [Compound 1, reference compound] | 839 nM | – | – | – |
| CCS(=O)(=O)Nc1cccc(-c2cnc3[nH]cc(-c4ccc5ncn(C)c5c4)c3c2)c1 [P-094, N-[3-[3-(3-methylbenzimidazol-5-yl)-1H-pyrrolo[2,3-b]pyridin-5-yl]phenyl]ethanesulfonamide] | – | 0.0001 to 1 µM | 1 to 10 µM | 0.0001 to 1 µM |
| COc1cnc2[nH]cc(-c3ccc4ncnc(OC)c4c3)c2c1 [P-043, 4-methoxy-6-(5-methoxy-1H-pyrrolo[2,3-b]pyridin-3-yl)quinazoline] | – | 0.0001 to 1 µM | 1 to 10 µM | 0.0001 to 1 µM |
| c1cnc2[nH]cc(-c3ccc4[nH]nnc4c3)c2c1 [P-005, 5-(1H-pyrrolo[2,3-b]pyridin-3-yl)-1H-benzotriazole] | – | 1 to 10 µM | 10 to 200 µM | 10 to 200 µM |
| COc1cnc2[nH]cc(-c3ccc4[nH]cnc4c3)c2c1 [Compound 2] | 225 nM | – | – | – |
| CN(C)c1ccc(-c2cnc3[nH]cc(-c4ccc5ncn(C(C)(C)C)c5c4)c3n2)cn1 [P-379, 5-[7-(3-tert-butylbenzimidazol-5-yl)-5H-pyrrolo[2,3-b]pyrazin-2-yl]-N,N-dimethyl-pyridin-2-amine] | – | 0.0001 to 1 µM | 0.0001 to 1 µM | 0.0001 to 1 µM |
| O=C(C1CC1)N1CC=C(c2cnc3[nH]cc(-c4ccc5ncn(CC(F)(F)F)c5c4)c3n2)C1 [P-125, cyclopropyl-[3-[7-[3-(2,2,2-trifluoroethyl)benzimidazol-5-yl]-5H-pyrrolo[2,3-b]pyrazin-2-yl]-2,5-dihydropyrrol-1-yl]methanone] | – | 0.0001 to 1 µM | 1 to 10 µM | 0.0001 to 1 µM |
| Cn1cnc2ccc(-c3c[nH]c4ncccc34)cc21 [P-009, 1-methyl-6-(1H-pyrrolo[2,3-b]pyridin-3-yl)benzimidazole] | – | 0.0001 to 1 µM | 1 to 10 µM | 0.0001 to 1 µM |
| O=C(C1CC1)N1CC=C(c2cnc3[nH]cc(-c4ccc5[nH]cnc5c4)c3c2)CC1 [P-017, [4-[3-(1H-benzimidazol-5-yl)-1H-pyrrolo[2,3-b]pyridin-5-yl]-3,6-dihydro-2H-pyridin-1-yl]-cyclopropyl-methanone] | – | 0.0001 to 1 µM | 1 to 10 µM | 0.0001 to 1 µM |
| Cc1cnc2[nH]cc(-c3ccc4nc[nH]c4c3)c2c1 [P-021, 3-(3H-benzimidazol-5-yl)-5-methyl-1H-pyrrolo[2,3-b]pyridine] | – | 0.0001 to 1 µM | 1 to 10 µM | 0.0001 to 1 µM |
